Measured values as given in ChEMBL document CHEMBL2385007, “Synthesis and biological evaluation of prodrugs of 2-fluoro-2-deoxyribose-1-phosphate and 2,2-difluoro-2-deoxyribose-1-phosphate” (Bioorg Med Chem Lett, 2013).

Experiments:
Human alphaherpesvirus 3 [1] = assay: Antiviral activity against Varicellla-zoster virus 07-1 infected in HEL cells assessed as inhibition of virus-induced cytopathicity; type: functional, organism-based; conditions: Human alphaherpesvirus 3, 07-1, HEL
[2] = Cytotoxicity against cat CRFK cells; type: cell-based, Felis catus
[3] = test system: Vesicular stomatitis virus; assay: Antiviral activity against Vesicular somatitis virus infected in HEL cells assessed as inhibition of virus-induced cytopathicity; type: functional, organism-based
Human alphaherpesvirus 2 = assay: Antiviral activity against HSV-2 G infected in HEL cells assessed as inhibition of virus-induced cytopathicity; type: functional, organism-based; conditions: Human alphaherpesvirus 2, strain G
Vaccinia virus = assay: Antiviral activity against Vaccinia virus Lederle infected in HEL cells assessed as inhibition of virus-induced cytopathicity; type: functional, organism-based; conditions: Orthopoxvirus vaccinia
Human alphaherpesvirus 1 [4] = assay: Antiviral activity against thymidine kinase-deficient ACV-resistant HSV-1 KOS infected in HEL cells assessed as inhibition of virus-induced cytopathicity; type: functional, organism-based; conditions: Human alphaherpesvirus 1, KOS
CCRF-CEM = assay: Cytotoxicity against human CEM cells; type: cell-based
L1210 = assay: Cytotoxicity against mouse L1210 cells; type: cell-based
Cytomegalovirus = assay: Antiviral activity against Cytomegalovirus Davis infected in HEL cells assessed as inhibition of virus-induced cytopathicity; type: functional, organism-based; conditions: Human betaherpesvirus 5, Davis
Felid alphaherpesvirus 1 = assay: Antiviral activity against Feline herpesvirus in cat CrFK cells assessed as plaque formation; type: functional, organism-based; conditions: Felid alphaherpesvirus 1, CRFK
Feline coronavirus = assay: Antiviral activity against Feline coronavirus in cat CrFK cells assessed as plaque formation; type: functional, organism-based; conditions: Alphacoronavirus 1, CRFK
[5] = Cytotoxicity against human HEL cells; type: cell-based
[6] = test system: Human immunodeficiency virus 1; assay: Antiviral activity against HIV-1 3B infected in human CEM cells assessed as HIV-induced host giant cell formation after 4 days by microscopic analysis; type: functional, organism-based; conditions: Human immunodeficiency virus 1, 3B, CCRF-CEM, 96 h
Human alphaherpesvirus 1 [7] = assay: Antiviral activity against HSV-1 KOS infected in HEL cells assessed as inhibition of virus-induced cytopathicity; type: functional, organism-based; conditions: Human alphaherpesvirus 1, KOS
Human alphaherpesvirus 3 [8] = assay: Antiviral activity against Varicellla-zoster virus Oka infected in HEL cells assessed as inhibition of virus-induced cytopathicity; type: functional, cell-based; conditions: Human alphaherpesvirus 3, strain Oka vaccine
Human betaherpesvirus 5 = assay: Antiviral activity against Cytomegalovirus AD-169 infected in HEL cells assessed as inhibition of virus-induced cytopathicity; type: functional, organism-based; conditions: Human betaherpesvirus 5, AD169, HEL
[9] = test system: Human immunodeficiency virus 2; assay: Antiviral activity against HIV-2 ROD infected in human CEM cells assessed as HIV-induced host giant cell formation after 4 days by microscopic analysis; type: functional, organism-based; conditions: Human immunodeficiency virus 2, ISOLATE ROD, CCRF-CEM, 96 h

Structure (SMILES)	EC50 (Human alphaherpesvirus 3 [1])	CC50 [2]	EC50 [3]	EC50 (Human alphaherpesvirus 2)	EC50 (Vaccinia virus)	EC50 (Human alphaherpesvirus 1 [4])	IC50 (CCRF-CEM)	IC50 (L1210)	EC50 (Cytomegalovirus)	EC50 (Felid alphaherpesvirus 1)	EC50 (Feline coronavirus)	MCC [5]	EC50 [6]	EC50 (Human alphaherpesvirus 1 [7])	EC50 (Human alphaherpesvirus 3 [8])	EC50 (Human betaherpesvirus 5)	EC50 [9]
COC(=O)[C@H](C)NP(=O)(Oc1ccccc1)O[C@@H]1O[C@H](CO)[C@@H](O)C1(F)F (mixture of isomers)	> 20 µM	> 100 µM	> 20 µM	> 20 µM	> 20 µM	> 20 µM	> 30 µM	> 30 µM	> 20 µM	> 20 µM	> 20 µM	≥ 100 µM	> 250 µM	> 20 µM	> 20 µM	> 20 µM	> 250 µM
COC(=O)[C@@H](NP(=O)(Oc1ccccc1)O[C@@H]1O[C@H](CO)[C@@H](O)C1(F)F)C(C)C (mixture of isomers)	> 20 µM	> 100 µM	> 20 µM	> 20 µM	> 20 µM	> 20 µM	> 30 µM	> 30 µM	> 20 µM	> 20 µM	> 20 µM	≥ 100 µM	> 250 µM	> 20 µM	> 20 µM	> 20 µM	> 250 µM
C[C@H](NP(=O)(Oc1cccc2ccccc12)O[C@@H]1O[C@H](CO)[C@@H](O)C1(F)F)C(=O)OCC(C)(C)C (mixture of isomers)	> 20 µM	> 100 µM	> 20 µM	> 20 µM	> 20 µM	> 20 µM	> 30 µM	> 30 µM	> 20 µM	> 20 µM	> 20 µM	≥ 100 µM	> 50 µM	> 20 µM	> 20 µM	> 20 µM	> 50 µM
C[C@H](NP(=O)(Oc1ccccc1)O[C@@H]1O[C@H](CO)[C@@H](O)C1(F)F)C(=O)OC1CCCCC1 (stereo partly specified)	> 20 µM	> 100 µM	> 20 µM	> 20 µM	> 20 µM	> 20 µM	> 30 µM	> 30 µM	> 20 µM	> 20 µM	> 20 µM	≥ 100 µM	> 250 µM	> 20 µM	> 20 µM	> 20 µM	> 250 µM
C[C@H](NP(=O)(Oc1ccccc1)O[C@H]1O[C@H](CO)[C@@H](O)C1(F)F)C(=O)OCC(C)(C)C (mixture of isomers)	> 20 µM	> 100 µM	> 20 µM	> 20 µM	> 20 µM	> 20 µM	> 30 µM	> 30 µM	> 20 µM	> 20 µM	> 20 µM	≥ 100 µM	> 250 µM	> 20 µM	> 20 µM	> 20 µM	> 250 µM
COC(=O)[C@@H](NP(=O)(Oc1cccc2ccccc12)O[C@@H]1O[C@H](CO)[C@@H](O)C1(F)F)C(C)C (mixture of isomers)	> 20 µM	> 100 µM	> 20 µM	> 20 µM	> 20 µM	> 20 µM	> 30 µM	> 30 µM	> 20 µM	> 20 µM	> 20 µM	≥ 100 µM	> 50 µM	> 20 µM	> 20 µM	> 20 µM	> 50 µM
C[C@H](NP(=O)(Oc1cccc2ccccc12)O[C@@H]1O[C@H](CO)[C@@H](O)C1(F)F)C(=O)OC1CCCCC1 (mixture of isomers)	> 20 µM	> 100 µM	> 20 µM	> 20 µM	> 20 µM	> 20 µM	> 30 µM	> 30 µM	> 20 µM	> 20 µM	> 20 µM	≥ 100 µM	> 50 µM	> 20 µM	> 20 µM	> 20 µM	> 50 µM
COC(=O)[C@H](C)NP(=O)(Oc1ccccc1)O[C@H]1O[C@H](CO)[C@@H](O)C1(F)F (mixture of isomers)	> 20 µM	> 100 µM	> 20 µM	> 20 µM	> 20 µM	> 20 µM	> 30 µM	> 30 µM	> 20 µM	> 20 µM	> 20 µM	≥ 100 µM	> 250 µM	> 20 µM	> 20 µM	> 20 µM	> 250 µM
C[C@H](NP(=O)(Oc1cccc2ccccc12)O[C@H]1O[C@H](CO)[C@@H](O)C1(F)F)C(=O)OCC(C)(C)C (mixture of isomers)	> 20 µM	> 100 µM	> 20 µM	> 20 µM	> 20 µM	> 20 µM	> 30 µM	> 30 µM	> 20 µM	> 20 µM	> 20 µM	≥ 100 µM	> 50 µM	> 20 µM	> 20 µM	> 20 µM	> 50 µM
COC(=O)[C@@H](NP(=O)(Oc1cccc2ccccc12)O[C@H]1O[C@H](CO)[C@@H](O)C1(F)F)C(C)C (mixture of isomers)	> 20 µM	> 100 µM	> 20 µM	> 20 µM	> 20 µM	> 20 µM	> 30 µM	> 30 µM	> 20 µM	> 20 µM	> 20 µM	≥ 100 µM	> 50 µM	> 20 µM	> 20 µM	> 20 µM	> 50 µM
COC(=O)[C@H](C)NP(=O)(Oc1cccc2ccccc12)O[C@@H]1O[C@H](CO)[C@@H](O)C1(F)F (mixture of isomers)	> 20 µM	> 100 µM	> 20 µM	> 20 µM	> 20 µM	> 20 µM	> 30 µM	> 30 µM	> 20 µM	> 20 µM	> 20 µM	≥ 100 µM	> 50 µM	> 20 µM	> 20 µM	> 20 µM	> 50 µM
COC(=O)[C@H](C)NP(=O)(Oc1cccc2ccccc12)O[C@H]1O[C@H](CO)[C@@H](O)C1(F)F (mixture of isomers)	> 20 µM	> 100 µM	> 20 µM	> 20 µM	> 20 µM	> 20 µM	> 30 µM	> 30 µM	> 20 µM	> 20 µM	> 20 µM	≥ 100 µM	> 50 µM	> 20 µM	> 20 µM	> 20 µM	> 50 µM
C[C@H](NP(=O)(Oc1ccccc1)O[C@@H]1O[C@H](CO)[C@@H](O)C1(F)F)C(=O)OCC(C)(C)C (mixture of isomers)	> 20 µM	> 100 µM	> 20 µM	> 20 µM	> 20 µM	> 20 µM	> 30 µM	> 30 µM	> 20 µM	> 20 µM	> 20 µM	≥ 100 µM	> 250 µM	> 20 µM	> 20 µM	> 20 µM	> 250 µM
